Earlier results, collected in patent publication US7044945B2, “Prevention of regression in thermal ciliary muscle tendinoplasty” (priority 2001, dated 2006).

Experiments:
[1] = tested on: healing wound
[2] = in mammals

Compound | tensile strength of the wounds ([1]; compared with controls) | thermal shrinkage temperature of individual collagen fibers from the wounds ([1]; treated wounds compared to comparable controls) | solubility in water and alcohol | toxicity [2]
CCN=C=NCCCN(C)C.Cl [1-ethyl-1-3 (3-dimethylaminopropyl) carbodiimide hydrochloride] | sizable increase | increased |  | 
OCC(O)CO [glycerol] |  |  | completely soluble | very low toxicity
